Active and inactive are the calls of the source.
How the values were obtained:
Activin receptor type-1 = target: T1, Activin receptor type-1 (Homo sapiens, UniProt Q04771)
T1 sequence (Q04771 whole entry): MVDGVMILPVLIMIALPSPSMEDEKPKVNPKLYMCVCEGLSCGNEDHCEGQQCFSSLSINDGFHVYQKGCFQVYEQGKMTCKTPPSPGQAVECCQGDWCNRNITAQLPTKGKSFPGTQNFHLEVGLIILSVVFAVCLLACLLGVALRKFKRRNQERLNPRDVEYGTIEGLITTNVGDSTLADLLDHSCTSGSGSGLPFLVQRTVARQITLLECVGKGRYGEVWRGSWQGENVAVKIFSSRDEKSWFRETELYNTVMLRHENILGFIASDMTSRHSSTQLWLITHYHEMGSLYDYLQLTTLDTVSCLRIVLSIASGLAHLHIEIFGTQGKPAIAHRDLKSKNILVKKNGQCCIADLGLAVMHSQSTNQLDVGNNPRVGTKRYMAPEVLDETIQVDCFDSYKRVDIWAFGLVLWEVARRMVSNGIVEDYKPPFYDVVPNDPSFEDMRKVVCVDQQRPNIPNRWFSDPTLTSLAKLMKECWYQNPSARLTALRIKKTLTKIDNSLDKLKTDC

[1] = target: T2, Mitogen-activated protein kinase 15 (Homo sapiens, UniProt Q8TD08)
T2 sequence (Q8TD08 whole entry): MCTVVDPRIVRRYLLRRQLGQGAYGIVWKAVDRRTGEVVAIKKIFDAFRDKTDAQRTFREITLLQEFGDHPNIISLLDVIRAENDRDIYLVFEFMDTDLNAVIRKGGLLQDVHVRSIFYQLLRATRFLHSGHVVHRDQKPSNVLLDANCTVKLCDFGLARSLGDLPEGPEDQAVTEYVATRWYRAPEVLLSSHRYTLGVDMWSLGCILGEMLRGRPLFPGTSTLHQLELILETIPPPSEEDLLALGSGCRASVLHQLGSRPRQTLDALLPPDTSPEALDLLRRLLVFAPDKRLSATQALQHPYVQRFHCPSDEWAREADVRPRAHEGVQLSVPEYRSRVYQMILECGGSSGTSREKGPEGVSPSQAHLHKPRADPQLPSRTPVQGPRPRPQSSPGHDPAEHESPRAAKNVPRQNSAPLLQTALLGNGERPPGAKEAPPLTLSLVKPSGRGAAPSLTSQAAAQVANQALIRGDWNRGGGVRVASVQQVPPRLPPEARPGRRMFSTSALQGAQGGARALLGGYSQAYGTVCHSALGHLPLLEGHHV

[2] = target: T3, Mitogen-activated protein kinase kinase kinase 5 (Homo sapiens, UniProt Q99683)
T3 sequence (Q99683 whole entry): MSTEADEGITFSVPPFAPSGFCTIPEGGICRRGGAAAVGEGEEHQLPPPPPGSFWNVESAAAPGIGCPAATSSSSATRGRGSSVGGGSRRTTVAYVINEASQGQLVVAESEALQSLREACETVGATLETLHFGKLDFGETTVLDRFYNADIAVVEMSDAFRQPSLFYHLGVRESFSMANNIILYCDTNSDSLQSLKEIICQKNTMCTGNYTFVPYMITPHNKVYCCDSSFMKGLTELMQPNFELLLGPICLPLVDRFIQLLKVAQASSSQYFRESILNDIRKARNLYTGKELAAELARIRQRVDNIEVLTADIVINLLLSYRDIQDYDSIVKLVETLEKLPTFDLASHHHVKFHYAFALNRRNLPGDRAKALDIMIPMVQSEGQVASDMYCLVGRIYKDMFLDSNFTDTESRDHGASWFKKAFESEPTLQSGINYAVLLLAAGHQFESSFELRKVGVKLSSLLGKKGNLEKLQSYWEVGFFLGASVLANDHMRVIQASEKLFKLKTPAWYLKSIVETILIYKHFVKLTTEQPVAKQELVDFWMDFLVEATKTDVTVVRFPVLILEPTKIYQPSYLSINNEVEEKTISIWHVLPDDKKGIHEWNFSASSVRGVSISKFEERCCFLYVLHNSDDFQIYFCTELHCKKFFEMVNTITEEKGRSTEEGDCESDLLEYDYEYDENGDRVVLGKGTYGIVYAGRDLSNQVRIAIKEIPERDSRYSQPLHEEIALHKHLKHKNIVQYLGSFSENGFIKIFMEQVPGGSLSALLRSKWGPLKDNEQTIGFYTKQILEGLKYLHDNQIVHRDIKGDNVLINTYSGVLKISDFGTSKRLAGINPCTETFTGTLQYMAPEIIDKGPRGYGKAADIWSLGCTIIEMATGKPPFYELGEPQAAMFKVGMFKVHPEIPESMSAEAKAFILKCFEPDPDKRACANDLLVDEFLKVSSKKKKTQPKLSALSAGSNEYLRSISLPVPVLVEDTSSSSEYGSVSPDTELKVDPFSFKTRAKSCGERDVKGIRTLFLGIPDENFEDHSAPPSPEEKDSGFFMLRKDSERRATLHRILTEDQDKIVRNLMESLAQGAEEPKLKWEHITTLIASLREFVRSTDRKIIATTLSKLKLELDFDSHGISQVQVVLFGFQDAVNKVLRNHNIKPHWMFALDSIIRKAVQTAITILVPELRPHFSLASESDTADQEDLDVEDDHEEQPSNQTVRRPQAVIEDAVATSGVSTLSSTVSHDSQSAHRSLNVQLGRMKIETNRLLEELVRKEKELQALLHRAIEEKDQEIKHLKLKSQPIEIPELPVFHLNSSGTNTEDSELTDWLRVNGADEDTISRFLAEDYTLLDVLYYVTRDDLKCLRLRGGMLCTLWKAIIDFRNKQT

[3] = target: ATP-dependent RNA helicase DDX3X (Homo sapiens, UniProt O00571)
[4] = target: AP2-associated protein kinase 1 (Homo sapiens, UniProt Q2M2I8)
[5] = target: G protein-coupled receptor kinase 6 (Homo sapiens, UniProt P43250)
[6] = target: Mitogen-activated protein kinase 7 (Homo sapiens, UniProt Q13164)
[7] = target: Tyrosine-protein kinase Lyn (Homo sapiens, UniProt P07948)
Also: in the data inactive means no Kd found up to 30 µM.

Sequence of Mitogen-activated protein kinase 7 (Q13164 whole entry): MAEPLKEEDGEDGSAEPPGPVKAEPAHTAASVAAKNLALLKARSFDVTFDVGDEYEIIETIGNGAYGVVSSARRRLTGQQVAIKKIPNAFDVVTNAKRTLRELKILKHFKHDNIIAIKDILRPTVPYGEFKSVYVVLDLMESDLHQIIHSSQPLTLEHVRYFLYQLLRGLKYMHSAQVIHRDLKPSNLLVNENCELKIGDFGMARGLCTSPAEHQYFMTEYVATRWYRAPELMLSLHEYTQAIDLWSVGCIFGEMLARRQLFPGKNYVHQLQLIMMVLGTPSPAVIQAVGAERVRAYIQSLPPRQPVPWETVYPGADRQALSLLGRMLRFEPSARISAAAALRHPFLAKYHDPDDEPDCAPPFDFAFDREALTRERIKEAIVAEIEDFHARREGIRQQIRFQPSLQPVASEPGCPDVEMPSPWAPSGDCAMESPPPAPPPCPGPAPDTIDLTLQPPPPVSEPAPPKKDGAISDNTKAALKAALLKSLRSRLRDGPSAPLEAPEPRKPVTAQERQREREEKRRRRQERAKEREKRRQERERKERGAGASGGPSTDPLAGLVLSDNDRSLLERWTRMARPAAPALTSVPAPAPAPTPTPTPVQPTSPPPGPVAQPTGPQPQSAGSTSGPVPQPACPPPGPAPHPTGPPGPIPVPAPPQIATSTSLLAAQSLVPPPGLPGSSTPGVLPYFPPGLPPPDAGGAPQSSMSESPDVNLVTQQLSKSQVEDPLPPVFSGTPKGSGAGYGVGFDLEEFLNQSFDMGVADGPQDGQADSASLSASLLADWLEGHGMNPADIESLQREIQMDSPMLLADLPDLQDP
Sequence of G protein-coupled receptor kinase 6 (P43250 whole entry): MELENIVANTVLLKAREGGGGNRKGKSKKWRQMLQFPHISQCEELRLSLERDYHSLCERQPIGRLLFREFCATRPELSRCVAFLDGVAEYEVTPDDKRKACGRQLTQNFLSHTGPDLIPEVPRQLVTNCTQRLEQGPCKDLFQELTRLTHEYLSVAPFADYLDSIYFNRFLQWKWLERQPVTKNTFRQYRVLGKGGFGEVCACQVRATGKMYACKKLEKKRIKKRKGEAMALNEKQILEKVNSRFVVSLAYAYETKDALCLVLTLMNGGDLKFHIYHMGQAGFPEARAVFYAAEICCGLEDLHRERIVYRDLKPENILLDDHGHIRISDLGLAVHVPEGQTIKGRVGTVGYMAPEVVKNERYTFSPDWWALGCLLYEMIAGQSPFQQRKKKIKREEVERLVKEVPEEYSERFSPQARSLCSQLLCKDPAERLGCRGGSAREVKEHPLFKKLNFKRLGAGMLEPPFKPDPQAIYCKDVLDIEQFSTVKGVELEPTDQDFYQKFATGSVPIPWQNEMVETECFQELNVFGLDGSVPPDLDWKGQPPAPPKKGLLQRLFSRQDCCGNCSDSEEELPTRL
Sequence of ATP-dependent RNA helicase DDX3X (O00571 whole entry): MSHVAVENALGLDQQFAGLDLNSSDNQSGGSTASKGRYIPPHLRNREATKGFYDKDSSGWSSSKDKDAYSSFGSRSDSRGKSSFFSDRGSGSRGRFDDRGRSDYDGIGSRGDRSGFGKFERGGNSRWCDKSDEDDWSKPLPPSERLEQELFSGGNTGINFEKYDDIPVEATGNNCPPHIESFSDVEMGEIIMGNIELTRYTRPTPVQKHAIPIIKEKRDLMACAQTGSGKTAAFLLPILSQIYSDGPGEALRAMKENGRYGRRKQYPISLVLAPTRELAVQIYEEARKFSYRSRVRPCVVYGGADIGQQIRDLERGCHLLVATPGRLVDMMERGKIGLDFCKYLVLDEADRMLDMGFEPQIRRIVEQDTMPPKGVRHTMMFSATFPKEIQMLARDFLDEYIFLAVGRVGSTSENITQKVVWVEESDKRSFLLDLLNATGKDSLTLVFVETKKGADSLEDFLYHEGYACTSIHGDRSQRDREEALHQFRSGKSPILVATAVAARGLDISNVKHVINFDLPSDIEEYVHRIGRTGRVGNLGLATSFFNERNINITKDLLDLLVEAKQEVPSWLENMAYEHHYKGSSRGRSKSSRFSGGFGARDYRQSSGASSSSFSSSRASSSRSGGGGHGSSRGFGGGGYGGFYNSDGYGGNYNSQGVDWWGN
Sequence of Tyrosine-protein kinase Lyn (P07948 whole entry): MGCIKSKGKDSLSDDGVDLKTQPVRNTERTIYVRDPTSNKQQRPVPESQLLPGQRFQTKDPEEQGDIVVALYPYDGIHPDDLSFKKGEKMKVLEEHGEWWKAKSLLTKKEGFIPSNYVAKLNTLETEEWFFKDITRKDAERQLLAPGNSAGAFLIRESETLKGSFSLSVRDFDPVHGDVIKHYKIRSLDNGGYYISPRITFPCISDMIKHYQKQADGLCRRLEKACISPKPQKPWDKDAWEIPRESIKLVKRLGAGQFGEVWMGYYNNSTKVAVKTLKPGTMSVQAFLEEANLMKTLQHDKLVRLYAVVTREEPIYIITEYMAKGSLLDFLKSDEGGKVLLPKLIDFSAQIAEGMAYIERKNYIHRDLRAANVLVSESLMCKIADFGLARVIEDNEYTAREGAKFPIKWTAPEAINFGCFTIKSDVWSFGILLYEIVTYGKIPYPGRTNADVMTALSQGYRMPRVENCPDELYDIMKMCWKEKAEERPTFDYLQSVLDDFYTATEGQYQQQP
Sequence of AP2-associated protein kinase 1 (Q2M2I8 whole entry): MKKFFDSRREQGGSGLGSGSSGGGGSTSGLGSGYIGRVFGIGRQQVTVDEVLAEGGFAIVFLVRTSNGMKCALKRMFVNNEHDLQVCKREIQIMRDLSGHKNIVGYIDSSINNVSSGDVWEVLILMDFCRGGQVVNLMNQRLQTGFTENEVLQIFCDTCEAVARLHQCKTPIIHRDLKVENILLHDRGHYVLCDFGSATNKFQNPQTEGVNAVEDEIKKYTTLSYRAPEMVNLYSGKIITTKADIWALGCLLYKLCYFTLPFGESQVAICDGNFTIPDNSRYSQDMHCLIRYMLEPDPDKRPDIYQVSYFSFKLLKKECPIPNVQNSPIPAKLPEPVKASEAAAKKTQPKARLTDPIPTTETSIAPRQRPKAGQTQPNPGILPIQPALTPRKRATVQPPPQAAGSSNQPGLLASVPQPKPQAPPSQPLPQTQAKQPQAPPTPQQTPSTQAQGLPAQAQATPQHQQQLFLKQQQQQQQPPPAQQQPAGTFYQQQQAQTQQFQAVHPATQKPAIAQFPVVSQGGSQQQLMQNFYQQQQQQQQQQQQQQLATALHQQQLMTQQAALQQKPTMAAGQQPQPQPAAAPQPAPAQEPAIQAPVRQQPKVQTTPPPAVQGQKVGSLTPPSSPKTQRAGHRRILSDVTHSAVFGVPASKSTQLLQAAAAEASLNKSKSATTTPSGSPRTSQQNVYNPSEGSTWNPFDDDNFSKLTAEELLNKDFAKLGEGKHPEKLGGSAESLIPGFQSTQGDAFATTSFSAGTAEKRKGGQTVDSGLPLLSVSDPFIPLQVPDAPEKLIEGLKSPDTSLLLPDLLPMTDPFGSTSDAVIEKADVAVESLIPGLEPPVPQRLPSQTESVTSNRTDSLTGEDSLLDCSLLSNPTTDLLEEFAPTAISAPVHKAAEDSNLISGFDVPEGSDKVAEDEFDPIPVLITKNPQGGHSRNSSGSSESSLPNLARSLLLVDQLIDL

SMILES	Kd (Activin receptor type-1)	Kd [1]	Kd [2]	Kd [3]	Kd [4]	Kd [5]	Kd [6]	Kd [7]
COc1c(OCCCN2CCOCC2)ccc2c1N=C(NC(=O)c1cnc(N)nc1)N1CCN=C21 [COPANLISIB]	> 30 µM (inactive)	> 30 µM (inactive)	> 30 µM (inactive)	> 30 µM (inactive)	> 30 µM (inactive)	> 30 µM (inactive)	> 30 µM (inactive)	> 30 µM (inactive)
COCC(=O)NC/C=C/c1ccc2ncnc(Nc3ccc(Oc4ccc(C)nc4)c(C)c3)c2c1 [CP-724714]	> 30 µM (inactive)	> 30 µM (inactive)	> 30 µM (inactive)	> 30 µM (inactive)	> 30 µM (inactive)	> 30 µM (inactive)	> 30 µM (inactive)	> 30 µM (inactive)
C#Cc1cccc(Nc2ncnc3cc(OC)c(OCCCCCCC(=O)NO)cc23)c1 [CUDC-101]	> 30 µM (inactive)	> 30 µM (inactive)	> 30 µM (inactive)	> 30 µM (inactive)	> 30 µM (inactive)	> 30 µM (inactive)	> 30 µM (inactive)	> 30 µM (inactive)
Cc1cccc(-c2nn3c(c2-c2ccnc4ccc(C(N)=O)cc24)CCC3)n1 [GALUNISERTIB]	> 30 µM (inactive)	> 30 µM (inactive)	> 30 µM (inactive)	> 30 µM (inactive)	> 30 µM (inactive)	> 30 µM (inactive)	> 30 µM (inactive)	> 30 µM (inactive)
COc1ccc(S(=O)(=O)N(C(C)=O)c2ccccc2/C=C/c2cc[n+]([O-])cc2)cc1 [HMN-214]	> 30 µM (inactive)	> 30 µM (inactive)	> 30 µM (inactive)	> 30 µM (inactive)	> 30 µM (inactive)	> 30 µM (inactive)	> 30 µM (inactive)	> 30 µM (inactive)
O=C(Nc1cc(C(F)(F)F)cc(C(F)(F)F)c1)c1cc(Cl)ccc1O [IMD-0354]	> 30 µM (inactive)	> 30 µM (inactive)	> 30 µM (inactive)	> 30 µM (inactive)	> 30 µM (inactive)	> 30 µM (inactive)	> 30 µM (inactive)	> 30 µM (inactive)
CNC(=O)c1cccc2cc(Oc3ccnc4cc(OCC5(N)CC5)c(OC)cc34)ccc12 [LUCITANIB]	> 30 µM (inactive)	> 30 µM (inactive)	> 30 µM (inactive)	> 30 µM (inactive)	> 30 µM (inactive)	> 30 µM (inactive)	> 30 µM (inactive)	2.76 µM (active)
CNC(=O)c1nn(C)c2c1C(C)(C)Cc1cnc(Nc3ccc(N4CCN(C)CC4)cc3)nc1-2 [MILCICLIB]	0.477 µM (active)	> 30 µM (inactive)	> 30 µM (inactive)	> 30 µM (inactive)	7.41 µM (active)	> 30 µM (inactive)	> 30 µM (inactive)	3.54 µM (active)
NC1(c2ccc(-c3nc4ccn5c(=O)[nH]nc5c4cc3-c3ccccc3)cc2)CCC1 [MK-2206]	> 30 µM (inactive)	> 30 µM (inactive)	> 30 µM (inactive)	> 30 µM (inactive)	> 30 µM (inactive)	> 30 µM (inactive)	> 30 µM (inactive)	> 30 µM (inactive)
Cn1cc(-c2cnc3ccc4ccc(CS(=O)(=O)NCc5ccccn5)cc4c(=O)c3c2)cn1 [MK-8033]	> 30 µM (inactive)	> 30 µM (inactive)	> 30 µM (inactive)	> 30 µM (inactive)	> 30 µM (inactive)	> 30 µM (inactive)	> 30 µM (inactive)	> 30 µM (inactive)
FC(F)(F)c1ccc(/C=C/c2nc(COc3ccc(CCCCn4ccnn4)cc3)co2)cc1 [MUBRITINIB]	> 30 µM (inactive)	> 30 µM (inactive)	> 30 µM (inactive)	> 30 µM (inactive)	> 30 µM (inactive)	> 30 µM (inactive)	> 30 µM (inactive)	> 30 µM (inactive)
COc1ncc(-c2ccc3nccc(-c4ccnnc4)c3c2)cc1NS(=O)(=O)c1ccc(F)cc1F [OMIPALISIB]	> 30 µM (inactive)	> 30 µM (inactive)	> 30 µM (inactive)	> 30 µM (inactive)	> 30 µM (inactive)	> 30 µM (inactive)	> 30 µM (inactive)	> 30 µM (inactive)
Cc1cnc(NC(=O)Nc2cc(Br)c(C)cc2OC[C@@H]2CNCCO2)cn1 [RABUSERTIB]	> 30 µM (inactive)	> 30 µM (inactive)	> 30 µM (inactive)	> 30 µM (inactive)	> 30 µM (inactive)	> 30 µM (inactive)	> 30 µM (inactive)	> 30 µM (inactive)
CO[C@H]1C[C@@H]2CC[C@@H](C)[C@@](O)(O2)C(=O)C(=O)N2CCCC[C@H]2C(=O)O[C@H]([C@H](C)C[C@@H]2CC[C@@H](OP(C)(C)=O)[C@H](OC)C2)CC(=O)[C@H](C)/C=C(\C)[C@@H](O)[C@@H](OC)C(=O)[C@H](C)C[C@H](C)/C=C/C=C/C=C/1C [RIDAFOROLIMUS]	> 30 µM (inactive)	> 30 µM (inactive)	> 30 µM (inactive)	> 30 µM (inactive)	> 30 µM (inactive)	> 30 µM (inactive)	> 30 µM (inactive)	> 30 µM (inactive)
N#CC1(c2ccc(NC(=O)c3cccnc3NCc3ccncc3)cc2)CCCC1 [RIVOCERANIB]	> 30 µM (inactive)	> 30 µM (inactive)	> 30 µM (inactive)	> 30 µM (inactive)	> 30 µM (inactive)	> 30 µM (inactive)	> 30 µM (inactive)	> 30 µM (inactive)
CN1CCN(CCOc2cc(OC3CCOCC3)c3c(Nc4c(Cl)ccc5c4OCO5)ncnc3c2)CC1 [SARACATINIB]	0.004 µM (active)	> 30 µM (inactive)	> 30 µM (inactive)	> 30 µM (inactive)	> 30 µM (inactive)	> 30 µM (inactive)	> 30 µM (inactive)	0.113 µM (active)
Cn1cc(-c2cnn3c(N)c(Br)c([C@@H]4CCCNC4)nc23)cn1 [SCH-900776]	> 30 µM (inactive)	> 30 µM (inactive)	> 30 µM (inactive)	> 30 µM (inactive)	> 30 µM (inactive)	> 30 µM (inactive)	> 30 µM (inactive)	> 30 µM (inactive)

— ChEMBL document CHEMBL3991601, “The target landscape of clinical kinase drugs” (Science, 2017)
